Results taken from US8557746B2, “High throughput screens for small-molecule inhibitors of the nuclear receptor-like pathway regulating multidrug resistance in fungi” (The General Hospital Corporation, priority 2009, dated 2013).
pKd: −log10 of the molar value. Entries after “also recorded” stand apart in the source; their conditions may differ.

Legend:
S. cerevisiae gal11Δ = test: Drug sensitivity assay on agar, S. cerevisiae GAL11 deletion strain; assay type: cell-based; details: growth on YPD agar with increasing drug concentration
Method: (§1) Fresh S. cerevisiae colonies were inoculated in 5 ml of YPD or SD selection medium, and grown overnight at 30° C. The cells were diluted to an OD600 of 0.2, and 2 μl were spotted on agar-based solid medium containing an increasing gradient of drugs (for example, ketoconazole, cycloheximide, or 4-NQO) in the agar. The plates were incubated at 30° C. for 2-3 days. Susceptibility of the C. glabrata mutants was tested by spotting serial dilutions of cells onto YPD agar plates supplemented with fluconazole or ketoconazole. The yeast strains were grown overnight at 30° C. in YPD liquid medium. Cells were diluted to an OD600 of 2.0 in PBS, and 4 μl of the cell suspension and tenfold serial dilutions of the cells were spotted onto plates. Growth was assessed after 1 day of incubation at 30° C.

PDR5 gene = test: Xenobiotic-induced transcription of Pdr1p/Pdr3p target genes by quantitative real-time RT-PCR; assay type: cell-based; details: S. cerevisiae, Pdr1p/Pdr3p-dependent, 20 min drug treatment
Method: Yeast cultures were grown overnight with agitation in YPD at 30° C. The next day, cells were pelleted and washed twice with sterilized purified water (Millipore). Cells were then resuspended in 1% yeast extract and 2% peptone (YP) to an optical density (OD600) of 0.8, grown for another 16 hr at 30° C., then treated with different drugs for 20 min for quantitative RT-PCR, or 5 hr for β-galactosidase assay.
Total RNA was extracted from 5 ml of yeast culture using the Qiagen RNeasy MiniKit. Two micrograms of total RNA was used to generate cDNA using the First-Strand cDNA Synthesis Kit (GE Healthcare). The cDNA mix was diluted tenfold, and 2 μl was used for real-time quantitative PCR with SYBR Green (Applied Biosystems) on an ABI Prism 7900HT Sequence Detection System (Applied Biosystems).

C. glabrata Cggal11AΔ = test: Drug sensitivity growth assay, C. glabrata CgGAL11A deletion strain; assay type: cell-based; details: growth assays on YPD plates
Method: as §1

C. glabrata = test: C. elegans liquid killing assay; assay type: in vivo; details: fluconazole 8 μg/ml; for survival of nematodes infected with wild-type C. glabrata under antifungal treatment: six-day experiment
Method: The C. glabrata strains and lawns were grown and prepared as described previously. Breger, 3 PloS Pathogens, el8 (2007). The liquid medium killing assays were conducted as detailed in Breger, 2007, with a few changes. After the glp-4;sek-I worms were incubated at 25° C. for 2 days, they were washed off the nematode growth medium plates with M9 and transferred to C. glabrata lawns formed on Brain-Heart Infusion broth (Difco) agar plates. The worms were incubated on the lawns for 4 hr at 25° C., then washed off the plates with M9 buffer and allowed to crawl on unneeded Brain-Heart Infusion broth plates to remove yeast cells from their cuticles. Approximately 70-80 worms were then picked to wells in a six-well microtiter dish that contained 2 ml of liquid medium of 79% M9 buffer, 20% Brain-Heart Infusion broth, 10 μgml^−1 cholesterol in ethanol, and 90 μgml^−1 kanamycin, with the addition of 0.25% DMSO or 8 μgml^−1 fluconazole. The plates were incubated at 25° C. overnight and then examined at 24 hr intervals for survival. […] P values were calculated based on the entire six-day experiment with the log rank and Wilcoxon tests performed by STATA 6 statistical software (Stata, College Station, Tex.).

Myc6-Pdr1p = molecular target: T1, Myc6-Pdr1p (Saccharomyces cerevisiae, UniProt P12383); test: Drug-binding and cold competition assay with 3H-ketoconazole; parameters: species or system S. cerevisiae; details: for competition of binding of radiolabelled ketoconazole to Pdr1p by unlabelled xenobiotic: unlabelled xenobiotic at 1,000-fold excess of KET
T1 construct: N-terminal Myc-tagged full-length wild-type Pdr1p (Myc6-Pdr1pwt); made in house; host or cells: yeast (S. cerevisiae), immunopurified with anti-Myc 9E10 on Protein A/G beads
T1 sequence (P12383 whole entry): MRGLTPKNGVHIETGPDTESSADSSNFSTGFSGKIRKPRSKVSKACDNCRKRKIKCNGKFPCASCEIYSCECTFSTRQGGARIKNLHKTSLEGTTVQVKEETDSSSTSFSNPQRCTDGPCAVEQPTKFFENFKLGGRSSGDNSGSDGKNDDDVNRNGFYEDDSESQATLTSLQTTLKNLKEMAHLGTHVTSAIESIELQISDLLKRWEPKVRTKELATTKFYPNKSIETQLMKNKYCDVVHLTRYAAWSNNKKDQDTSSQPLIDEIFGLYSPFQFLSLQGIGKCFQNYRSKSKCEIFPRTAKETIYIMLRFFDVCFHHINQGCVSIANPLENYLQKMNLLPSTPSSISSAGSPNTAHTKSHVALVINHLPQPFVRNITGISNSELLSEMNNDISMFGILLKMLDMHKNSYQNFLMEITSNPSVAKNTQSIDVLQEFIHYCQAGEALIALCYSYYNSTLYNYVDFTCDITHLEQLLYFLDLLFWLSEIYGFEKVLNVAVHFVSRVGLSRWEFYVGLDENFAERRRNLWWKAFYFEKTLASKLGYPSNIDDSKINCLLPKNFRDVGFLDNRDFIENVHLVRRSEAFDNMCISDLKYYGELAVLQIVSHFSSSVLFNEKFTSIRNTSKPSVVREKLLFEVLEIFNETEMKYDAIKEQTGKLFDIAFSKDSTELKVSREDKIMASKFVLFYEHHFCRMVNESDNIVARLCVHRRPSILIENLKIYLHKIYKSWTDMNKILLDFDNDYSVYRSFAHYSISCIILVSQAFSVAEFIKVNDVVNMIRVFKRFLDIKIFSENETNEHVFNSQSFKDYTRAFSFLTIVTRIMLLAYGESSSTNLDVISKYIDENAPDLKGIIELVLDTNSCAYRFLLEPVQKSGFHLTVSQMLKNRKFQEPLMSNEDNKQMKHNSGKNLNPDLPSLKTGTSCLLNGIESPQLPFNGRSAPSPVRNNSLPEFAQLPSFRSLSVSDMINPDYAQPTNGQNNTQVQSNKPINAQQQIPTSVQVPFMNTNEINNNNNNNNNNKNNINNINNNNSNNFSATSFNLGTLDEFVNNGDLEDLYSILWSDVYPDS
Method: (§2) For co-immunoprecipitation, yeast cells were transformed with Myc6-Pdr1pwt and Gal11p-Flag2 (or Gal11pAKIX-Flag2). Cells were washed with 1×PBS after overnight culture in YPD medium, and then cultured in YP for another 24 hr. Cells were then treated with different concentrations of ketoconazole and cycloheximide (or ethanol for vehicle controls) for 1 hr. Yeast cell lysates were extracted in immunoprecipitation buffer (50 mM Tris-HCI, pH 8.0, 140 mM NaCl, 0.1 mM EDTA, 10% glycerol, 0.02% NP-40, 1 mM DTT, 0.25 mM PMSF, 1 mM benzamidine, 0.5 mgml^−1 aprotinin and Protease Inhibitor Cocktail (Complete, Roche)), with or without xenobiotics by vortexing in the presence of glass beads. The Flag-tagged proteins were then immunoprecipitated by adding anti-Flag M2 antibody-beads (Sigma) and incubating for 3 hr with mutating at 4 C. After washing five times with 1 ml of 0.25 M KCl IP buffer, bound proteins were eluted with 0.1 mgml^−1 Flag peptide (Sigma). Xenobiotics at the indicated concentrations were present at all steps of the co-immunoprecipitation, including washing. Immunoblotting was performed according to standard protocols. To immunopurify Myc6-Pdr1pwt or HA-Pdr1pwt, yeast whole-cell extract (in immunoprecipitation buffer) was incubated with anti-Myc (9E10) antibody or anti-HA (F-7) antibody, and a 50% mix of Protein A- and G-Sepharose beads (Amersham) at 4° C. for 3 hr. Beads were washed with IP buffer five times, and used for drug-binding experiments as outlined herein.
Xenobiotic-binding experiments were performed essentially as described (Kapinsky & Lasar, 435 Nature 446-51 (2005)), with some modifications as explained herein. Radiolabelled ketoconazole (KET: [^3H]G), specific radioactivity 10 Ci mmol^−1, was purchased from American Radiolabelled Chemicals. Beads with either immunopurified proteins or GST recombinant proteins were incubated with KET ([^3H]G) in drug-binding buffer (10 mM K2HPO4, 10 mM KH2PO4, pH 7.0, 2 mM EDTA, 50 mM NaCl, 1 mM DTT, 0.5 mM CHAPS, 10% glycerol and protease inhibitors) at 4° C. for 3 hr with mixing in a volume of 500 μl. […]

CgPdr1p = test: Binding of 3H-ketoconazole to immunopurified CgPdr1p; parameters: species or system C. glabrata; details: immunopurified Myc6-CgPdr1p on beads
Method: as §2, with “Immunoblotting was performed according to standard protocols. To immunopurify Myc6-Pdr1pwt or HA-Pdr1pwt, yeast whole-cell extract (in immunoprecipitation buffer) was incubated with anti-Myc (9E10) antibody or anti-HA (F-7) antibody, and a 50% mix of Protein A- and G-Sepharose beads (Amersham) at 4° C. for 3 hr. Beads were washed with IP buffer five times, and used for drug-binding experiments as outlined herein.” left out
Xenobiotic-binding experiments were performed essentially as described (Kapinsky & Lasar, 435 Nature 446-51 (2005)), with some modifications as explained herein. Radiolabelled ketoconazole (KET: [^3H]G), specific radioactivity 10 Ci mmol^−1, was purchased from American Radiolabelled Chemicals. […]

[1] = tested on: S. cerevisiae wild-type cells; test: High throughput cell viability screen (OD600) with or without ketoconazole; assay type: cell-based; details: OD600, two-fold dilutions from 30 μg/mL, with ketoconazole
Method: Briefly, S. cerevisiae or C. glabrata wild-type cells are grown to exponential growth phase and added to 384-well plates. Each well contains rich media with either (a) drug of interest or (b) drug of interest with ketoconazole. Serial 2-fold dilutions of compounds are tested to determine concentration-dependent effects upon cell viability. Cells are incubated at 30° C. and optical density (OD600) is measured to determine cell growth. Plates are set up in duplicate and compounds are scored for their ability to inhibit cell growth in the presence or absence of ketoconazole. For S. cerevisiae screening, wild-type inoculum cultures were grown in YPD (1% yeast extract, 2% bacto-peptone, 2% dextrose) at 30° C., 200 rpm overnight. On day 2, these cultures were expanded to log-phase growth in the morning (OD600˜0.500). On day 3, compounds of interest were added to 25 μL of YPD or YPD+10 μM ketoconazole at an initial concentration of 30 μg/mL and set up as 5 two-fold serial dilutions. Log-phase wild-type cultures with an OD600˜0.500 were diluted to an OD600 of 0.005 and added at an equal volume (25 μL) of wild-type cells to wells with compounds +/− ketoconazole. Initial OD600 values were read with a Perkin Elmer EnVision and plates incubated in a moist chamber at 30° C. OD600 was read at 24 hr, 48 hr, 72 hr and 96 hr. […]

O=[N+]([O-])c1cc[n+]([O-])c2ccccc12 [4-nitroquinoline oxide]
sensitivity of GAL11 deletion strain to toxin/xenobiotic (S. cerevisiae gal11Δ): striking sensitivity

CC(=O)N1CCN(c2ccc(OCC3COC(Cn4ccnc4)(c4ccc(Cl)cc4Cl)O3)cc2)CC1 (stereo not drawn) [ketoconazole]
induction of expression of drug efflux pump PDR5 and other Pdr1p/Pdr3p target genes (PDR5 gene): induced
sensitivity of GAL11 deletion strain to toxin/xenobiotic (S. cerevisiae gal11Δ): striking sensitivity
sensitivity of CgGAL11A deletion strain to drug (C. glabrata Cggal11AΔ): markedly increased sensitivity
survival of nematodes infected with wild-type C. glabrata under antifungal treatment (C. glabrata): completely resistant
pKd (Myc6-Pdr1p; cold ligand competition, 0.1 μM 3H-KET, Myc6-Pdr1p, read-out: dissociation constant (KD) of binding to immunopurified Pdr1p): ~4.41
competition of binding of radiolabelled ketoconazole to Pdr1p by unlabelled xenobiotic (Myc6-Pdr1p): effectively competed
direct binding of radiolabeled compound to CgPdr1p (CgPdr1p): binds directly

CN(C/C=C/C#CC(C)(C)C)Cc1cccc2ccccc12 [terbinafine]
growth inhibition in the presence of ketoconazole [1]: eliminate cell growth

C[C@@H]1C[C@@H]([C@H](O)CC2CC(=O)NC(=O)C2)C(=O)[C@@H](C)C1 [cycloheximide]
induction of expression of drug efflux pump PDR5 and other Pdr1p/Pdr3p target genes (PDR5 gene): induced
sensitivity of GAL11 deletion strain to toxin/xenobiotic (S. cerevisiae gal11Δ): striking sensitivity
sensitivity of CgGAL11A deletion strain to drug (C. glabrata Cggal11AΔ): markedly increased sensitivity
competition of binding of radiolabelled ketoconazole to Pdr1p by unlabelled xenobiotic (Myc6-Pdr1p): effectively competed

OC(Cn1cncn1)(Cn1cncn1)c1ccc(F)cc1F [fluconazole]
sensitivity of CgGAL11A deletion strain to drug (C. glabrata Cggal11AΔ): markedly increased sensitivity
survival of nematodes infected with Cggal11B or Cgmed1 deletion strains in the presence of antifungal (C. glabrata; Cggal11B or Cgmed1 deletion strains): little difference in survival rates
survival of nematodes infected with Cgpdr1 and Cggal11A deletion strains in the presence of antifungal (C. glabrata): significantly increased survival
survival of nematodes infected with Cgpdr1 and Cggal11A deletion strains in the presence of antifungal (C. glabrata; listed as Fluconazole): increased the lifespan of nematodes
survival of nematodes infected with wild-type C. glabrata under antifungal treatment (C. glabrata): completely resistant; also recorded: death of most nematodes within six days
